Test results published in US20050119231A1, “Quinolone antibacterial agents” (priority 2003, published 2005).
Converted amounts (≈) assume the structure as drawn.

Experiments:
Assay in all cases: Antibacterial microtitration assay (Test A), MIC
Format in all cases: cell-based
H. influenzae HI-3542 = conditions: Haemophilus influenzae, HI3542; Gram Negative Bacteria; strain HI-3542; read-out: Minimum Inhibitory Concentrations H. influenzae HI-3542
Procedure: (§1) Test A—Antibacterial Assays
(§2) The compounds of the present invention were tested against an assortment of Gram-negative and Gram-positive organisms using standard microtitration techniques (Cohen et. al., Antimicrob., 1985;28:766; Heifetz, et. al., Antimicrob., 1974;6:124).

M. catarrhalis BC-3531 = conditions: Moraxella catarrhalis, BC3531; Gram Negative Bacteria; strain BC-3531; read-out: Minimum Inhibitory Concentrations M. catarrhalis BC-3531
Procedure: as §1, §2

E. coli EC-2549 = conditions: Escherichia coli, EC2549; Gram Negative Bacteria; strain EC-2549; read-out: Minimum Inhibitory Concentrations E. coli EC-2549
Procedure: as §1, §2

S. pneumo SV-1 = conditions: Streptococcus pneumoniae, SV1; Gram Positive Bacteria; strain SV-1; read-out: Minimum Inhibitory Concentrations S. pneumo SV-1
Procedure: as §1, §2

S. aureus UC-76 = conditions: Staphylococcus aureus, UC76; Gram Positive Bacteria; strain UC-76; read-out: Minimum Inhibitory Concentrations S. aureus UC-76
Procedure: as §1, §2

E. faecalis MGH-2 = conditions: Enterococcus faecalis, MGH2; Gram Positive Bacteria; strain MGH-2; read-out: Minimum Inhibitory Concentrations E. faecalis MGH-2
Procedure: as §1, §2

S pyogenes C203 = conditions: Gram Positive Bacteria; strain C203; read-out: Minimum Inhibitory Concentrations S pyogenes C203
Procedure: as §1, §2

SMILES | MIC (H. influenzae HI-3542) | MIC (M. catarrhalis BC-3531) | MIC (E. coli EC-2549) | MIC (S. pneumo SV-1) | MIC (S. aureus UC-76) | MIC (E. faecalis MGH-2) | MIC (S pyogenes C203)
COc1c(N2CCC(C(O)c3ncco3)C2)c(F)cc2c(=O)n(N)c(=O)n(C3CC3)c12 (stereo not shown) [drawing 312] | 2 µg/mL (≈ 4.64 µM) | 2 µg/mL (≈ 4.64 µM) | 32 µg/mL (≈ 74.2 µM) |  |  |  | 
Cc1c(N2CCC(C(O)c3ncco3)C2)c(F)cc2c(=O)n(N)c(=O)n(C3CC3)c12 (stereo not shown) [drawing 313] | 1 µg/mL (≈ 2.41 µM) | 2 µg/mL (≈ 4.81 µM) | 16 µg/mL (≈ 38.5 µM) |  |  |  | 
COc1c(N2CCC(C(O)C(C)(F)F)C2)c(F)cc2c(=O)n(N)c(=O)n(C3CC3)c12 (stereo not shown) [drawing 314] | 4 µg/mL (≈ 9.34 µM) | 8 µg/mL (≈ 18.7 µM) | 64 µg/mL (≈ 149 µM) |  |  |  | 
COc1c(N2CCC(C(O)C(F)(F)F)C2)c(F)cc2c(=O)n(N)c(=O)n(C3CC3)c12 (stereo not shown) [drawing 318] | 0.125 µg/mL (≈ 0.289 µM) | 0.125 µg/mL (≈ 0.289 µM) | 2 µg/mL (≈ 4.63 µM) |  |  |  | 
COCC1CCN(c2c(F)cc3c(=O)n(N)c(=O)n(C4CC4)c3c2OC)C1 (stereo not shown) [drawing 319] | 4 µg/mL (≈ 10.6 µM) | 4 µg/mL (≈ 10.6 µM) | 32 µg/mL (≈ 84.6 µM) |  |  |  | 
COc1c(N2CCC(C(O)c3ncco3)C2)c(F)cc2c(=O)n(N)c(=O)n(C3CC3)c12 (stereo not shown) [drawing 321] |  |  |  | 8 µg/mL (≈ 18.5 µM) | 0.5 µg/mL (≈ 1.16 µM) | 8 µg/mL (≈ 18.5 µM) | 8 µg/mL (≈ 18.5 µM)
Cc1c(N2CCC(C(O)c3ncco3)C2)c(F)cc2c(=O)n(N)c(=O)n(C3CC3)c12 (stereo not shown) [drawing 322] |  |  |  | 4 µg/mL (≈ 9.63 µM) | 1 µg/mL (≈ 2.41 µM) | 8 µg/mL (≈ 19.3 µM) | 4 µg/mL (≈ 9.63 µM)
COc1c(N2CCC(C(O)C(C)(F)F)C2)c(F)cc2c(=O)n(N)c(=O)n(C3CC3)c12 (stereo not shown) [drawing 323] |  |  |  | 8 µg/mL (≈ 18.7 µM) | 2 µg/mL (≈ 4.67 µM) | 16 µg/mL (≈ 37.3 µM) | 8 µg/mL (≈ 18.7 µM)
COc1c(N2CCC(C(O)C(F)(F)F)C2)c(F)cc2c(=O)n(N)c(=O)n(C3CC3)c12 (stereo not shown) [drawing 327] |  |  |  | 0.5 µg/mL (≈ 1.16 µM) | 0.06 µg/mL (≈ 0.139 µM) | 1 µg/mL (≈ 2.31 µM) | 1 µg/mL (≈ 2.31 µM)
COCC1CCN(c2c(F)cc3c(=O)n(N)c(=O)n(C4CC4)c3c2OC)C1 (stereo not shown) [drawing 328] |  |  |  | 2 µg/mL (≈ 5.29 µM) | 1 µg/mL (≈ 2.64 µM) | 4 µg/mL (≈ 10.6 µM) | 4 µg/mL (≈ 10.6 µM)
Nn1c(=O)c2cc(F)c(N3C[C@@H](CO)[C@@H](CO)C3)nc2n(C2CC2)c1=O [drawing 330] | 0.5 µg/mL (≈ 1.37 µM) | 1 µg/mL (≈ 2.74 µM) | 16 µg/mL (≈ 43.8 µM) |  |  |  | 
Nn1c(=O)c2cc(F)c(N3C[C@H](CO)[C@@H](CO)C3)nc2n(C2CC2)c1=O [drawing 331] | 1 µg/mL (≈ 2.74 µM) | 4 µg/mL (≈ 10.9 µM) | 32 µg/mL (≈ 87.6 µM) |  |  |  | 
Nn1c(=O)c2cc(F)c(N3C[C@@H](O)[C@@H](O)C3)nc2n(C2CC2)c1=O [drawing 332] | 0.5 µg/mL (≈ 1.48 µM) | 2 µg/mL (≈ 5.93 µM) | 16 µg/mL (≈ 47.4 µM) |  |  |  | 
Nn1c(=O)c2cc(F)c(N3C[C@@H](CCO)[C@@H](CCO)C3)nc2n(C2CC2)c1=O [drawing 333] | 0.015 µg/mL (≈ 0.0381 µM) | 0.06 µg/mL (≈ 0.153 µM) | 0.125 µg/mL (≈ 0.318 µM) |  |  |  | 
Nn1c(=O)c2cc(F)c(N3C[C@H](CO)[C@H](F)C3)nc2n(C2CC2)c1=O [drawing 334] | 0.5 µg/mL (≈ 1.42 µM) | 1 µg/mL (≈ 2.83 µM) | 4 µg/mL (≈ 11.3 µM) |  |  |  | 
Nn1c(=O)c2cc(F)c(N3C[C@@H](CO)[C@@H](CO)C3)nc2n(C2CC2)c1=O [drawing 335] |  |  |  | 2 µg/mL (≈ 5.47 µM) | 0.25 µg/mL (≈ 0.684 µM) | 4 µg/mL (≈ 10.9 µM) | 1 µg/mL (≈ 2.74 µM)
Nn1c(=O)c2cc(F)c(N3C[C@H](CO)[C@@H](CO)C3)nc2n(C2CC2)c1=O [drawing 336] |  |  |  | 4 µg/mL (≈ 10.9 µM) | 0.5 µg/mL (≈ 1.37 µM) | 8 µg/mL (≈ 21.9 µM) | 2 µg/mL (≈ 5.47 µM)
Nn1c(=O)c2cc(F)c(N3C[C@@H](O)[C@@H](O)C3)nc2n(C2CC2)c1=O [drawing 337] |  |  |  | 8 µg/mL (≈ 23.7 µM) | 2 µg/mL (≈ 5.93 µM) | 8 µg/mL (≈ 23.7 µM) | 8 µg/mL (≈ 23.7 µM)
Nn1c(=O)c2cc(F)c(N3C[C@@H](CCO)[C@@H](CCO)C3)nc2n(C2CC2)c1=O [drawing 338] |  |  |  | 0.03 µg/mL (≈ 0.0763 µM) | 0.002 µg/mL (≈ 0.00508 µM) | 0.06 µg/mL (≈ 0.153 µM) | 0.03 µg/mL (≈ 0.0763 µM)
Nn1c(=O)c2cc(F)c(N3C[C@H](CO)[C@H](F)C3)nc2n(C2CC2)c1=O [drawing 339] |  |  |  | 2 µg/mL (≈ 5.66 µM) | 0.25 µg/mL (≈ 0.708 µM) | 4 µg/mL (≈ 11.3 µM) | 4 µg/mL (≈ 11.3 µM)

Further lines, results first:

MIC (H. influenzae HI-3542) | MIC (M. catarrhalis BC-3531) | MIC (E. coli EC-2549) | MIC (S. pneumo SV-1) | MIC (S. aureus UC-76) | MIC (E. faecalis MGH-2) | MIC (S pyogenes C203) | SMILES
0.5 µg/mL (≈ 1.44 µM) | 1 µg/mL (≈ 2.87 µM) | 4 µg/mL (≈ 11.5 µM) |  |  |  |  | Cc1c(N2CCC(CO)C2)c(F)cc2c(=O)n(N)c(=O)n(C3CC3)c12 (stereo not shown) [drawing 311]
2 µg/mL (≈ 5.29 µM) | 1 µg/mL (≈ 2.64 µM) | 16 µg/mL (≈ 42.3 µM) |  |  |  |  | COc1c(N2CCC(CCO)C2)c(F)cc2c(=O)n(N)c(=O)n(C3CC3)c12 (stereo not shown) [drawing 315]
1 µg/mL (≈ 2.3 µM) | 1 µg/mL (≈ 2.3 µM) | 8 µg/mL (≈ 18.4 µM) |  |  |  |  | COc1c(N2CCC(C(O)C3(CO)CC3)C2)c(F)cc2c(=O)n(N)c(=O)n(C3CC3)c12 (stereo not shown) [drawing 316]
0.5 µg/mL (≈ 1.32 µM) | 1 µg/mL (≈ 2.64 µM) | 4 µg/mL (≈ 10.6 µM) |  |  |  |  | Cc1c(N2CCC(C(O)CO)C2)c(F)cc2c(=O)n(N)c(=O)n(C3CC3)c12 (stereo not shown) [drawing 317]
 |  |  | 1 µg/mL (≈ 2.87 µM) | 0.5 µg/mL (≈ 1.44 µM) | 2 µg/mL (≈ 5.74 µM) | 2 µg/mL (≈ 5.74 µM) | Cc1c(N2CCC(CO)C2)c(F)cc2c(=O)n(N)c(=O)n(C3CC3)c12 (stereo not shown) [drawing 320]
 |  |  | 2 µg/mL (≈ 5.29 µM) | 0.5 µg/mL (≈ 1.32 µM) | 4 µg/mL (≈ 10.6 µM) | 4 µg/mL (≈ 10.6 µM) | COc1c(N2CCC(CCO)C2)c(F)cc2c(=O)n(N)c(=O)n(C3CC3)c12 (stereo not shown) [drawing 324]
 |  |  | 4 µg/mL (≈ 9.21 µM) | 0.5 µg/mL (≈ 1.15 µM) | 4 µg/mL (≈ 9.21 µM) | 8 µg/mL (≈ 18.4 µM) | COc1c(N2CCC(C(O)C3(CO)CC3)C2)c(F)cc2c(=O)n(N)c(=O)n(C3CC3)c12 (stereo not shown) [drawing 325]
 |  |  | 1 µg/mL (≈ 2.64 µM) | 0.25 µg/mL (≈ 0.661 µM) | 2 µg/mL (≈ 5.29 µM) | 1 µg/mL (≈ 2.64 µM) | Cc1c(N2CCC(C(O)CO)C2)c(F)cc2c(=O)n(N)c(=O)n(C3CC3)c12 (stereo not shown) [drawing 326]
16 µg/mL (≈ 39.4 µM) | 32 µg/mL (≈ 78.7 µM) | 64 µg/mL (≈ 157 µM) |  |  |  |  | Cc1c(N2C[C@](C)(CO)[C@](C)(CO)C2)c(F)cc2c(=O)n(N)c(=O)n(C3CC3)c12 [drawing 341]
 |  |  | 16 µg/mL (≈ 39.4 µM) | 2 µg/mL (≈ 4.92 µM) | 16 µg/mL (≈ 39.4 µM) | 32 µg/mL (≈ 78.7 µM) | Cc1c(N2C[C@](C)(CO)[C@](C)(CO)C2)c(F)cc2c(=O)n(N)c(=O)n(C3CC3)c12 [drawing 342]
4 µg/mL (≈ 9.89 µM) | 4 µg/mL (≈ 9.89 µM) | 32 µg/mL (≈ 79.1 µM) |  |  |  |  | Cc1c(N2CC3CCC(O)(CO)C3C2)c(F)cc2c(=O)n(N)c(=O)n(C3CC3)c12 (stereo not shown) [drawing 344]
 |  |  | 8 µg/mL (≈ 19.8 µM) | 1 µg/mL (≈ 2.47 µM) | 8 µg/mL (≈ 19.8 µM) | 8 µg/mL (≈ 19.8 µM) | Cc1c(N2CC3CCC(O)(CO)C3C2)c(F)cc2c(=O)n(N)c(=O)n(C3CC3)c12 (stereo not shown) [drawing 345]
